This is an account of results in publication PMC7317212 (Chemmedchem, 2020).

A word on the IC50: it is the concentration at which inhibition is half-maximal. High values mean a need for much substance, low ones inhibition by little substance.

The target in assay [1] is T1, mGAT1 (Mus musculus, UniProt P31648).
T1 construct: expressed in transfected cells; host or cells: HEK293
Kind of assay: [^3H]GABA uptake assay, HEK293 cells expressing mGAT1. The following applies: HEK293; in presence of 100 μM compound. Type of assay: cell-based. How it is done:
(§1) For compounds with pIC50 ([^3H]GABA uptake assay) or pK i (MS Binding Assays) values close to or above 5.0, these experiments were repeated twice and SEM have been calculated.
(§2) [^3H]GABA uptake assays: The [^3H]GABA uptake assays were performed according to Kragler et al.33 Cells were grown in 150 cm^2 plates to a confluence of 70–90 % up to passage 25. After detachment the cells were centrifuged 5 min at 500×g, washed for three times in phosphate buffered saline and, finally, resuspended in Krebs buffer (2.5 mM CaCl2, 1.2 mM MgSO4, 1.2 mM KH2PO4, 4.7 mM KCl, 11 mM glucose, 25 mM Tris, 119 mM NaCl, pH 7.2). The uptake assays were performed with aliquots of the resulting cell suspension (about 100000–200000 cells per well) in a total volume of 250 μl in 96 well 2.2 mL deep well plates. The cells were equilibrated for 25 min in Krebs buffer in the presence of the test compound at 37 °C in a gently shaking water bath. […] After addition of 25 μl of a solution containing [^3H]GABA (2.22 TBq/mmol, ARC, St Louis, MO, USA) and unlabeled GABA in Krebs (final concentration 8 nM [^3H]GABA and 32 nM unlabeled GABA for mGAT1, mGAT3, mGAT4 and 20 nM [^3H]GABA and 20 nM unlabeled GABA for mGAT2) the cells were incubated for further 4 min (mGAT1, mGAT3, mGAT4) or 10 minutes (mGAT2), respectively. The incubation was stopped by filtration through Sartorius MGC micro glass fiber filters pre‐soaked for 1 h in 0.9 % NaCl by means of a Brandell MWXR‐96TI cell harvester (Brandell, Gaithersburg, MD, USA) under reduced pressure. The filters were rinsed two times with cold 0.9 % NaCl and subsequently transferred to 96 well sample plates (Perkin Elmer LAS, Boston, MA, USA). After addition of 200 μl Rotiszint Eco Plus (Roth, Karlsruhe, Germany) per well the radioactivity was determined in a microbeta liquid scintillation counter (Perkin Elmer LAS, Boston, MA, USA). Non‐specific uptake was determined in presence of 10 mM GABA for mGAT1, mGAT3 and mGAT4 or 100 mM GABA for mGAT2, respectively. The results are expressed as means±S.E.M. of at least three separate experiments, each carried out in triplicate.

Assay [2] deals with T2, mGAT4 (Mus musculus, UniProt P31650).
T2 construct: expressed in transfected cells; host or cells: HEK293
T2 sequence (P31650 1-627): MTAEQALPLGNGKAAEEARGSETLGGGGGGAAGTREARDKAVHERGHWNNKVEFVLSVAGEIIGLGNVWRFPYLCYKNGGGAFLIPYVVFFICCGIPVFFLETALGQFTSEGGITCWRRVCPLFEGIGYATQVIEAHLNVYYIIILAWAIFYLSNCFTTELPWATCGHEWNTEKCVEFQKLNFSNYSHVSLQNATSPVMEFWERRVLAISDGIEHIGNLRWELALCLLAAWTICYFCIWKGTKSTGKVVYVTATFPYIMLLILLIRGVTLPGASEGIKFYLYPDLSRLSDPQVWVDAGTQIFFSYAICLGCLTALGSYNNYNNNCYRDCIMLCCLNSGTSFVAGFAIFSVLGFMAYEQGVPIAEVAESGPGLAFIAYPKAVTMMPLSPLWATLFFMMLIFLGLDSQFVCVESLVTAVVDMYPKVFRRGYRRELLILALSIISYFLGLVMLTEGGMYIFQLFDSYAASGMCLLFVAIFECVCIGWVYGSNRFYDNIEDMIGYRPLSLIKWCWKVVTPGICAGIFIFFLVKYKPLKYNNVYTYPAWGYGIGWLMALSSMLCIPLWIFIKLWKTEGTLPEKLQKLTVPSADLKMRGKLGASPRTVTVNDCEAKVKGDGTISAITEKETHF
Kind of assay: [^3H]GABA uptake assay, HEK293 cells expressing mGAT4. It is filed as cell-based. The following applies: for IC50: [^3H]GABA uptake, pIC50±SEM; for remaining activity at 100 µM: HEK293. On the procedure: as §1, §2

Assay [3] deals with T3, mGAT3 (Mus musculus, UniProt P31649).
T3 construct: expressed in transfected cells; host or cells: HEK293
T3 sequence (P31649 1-602): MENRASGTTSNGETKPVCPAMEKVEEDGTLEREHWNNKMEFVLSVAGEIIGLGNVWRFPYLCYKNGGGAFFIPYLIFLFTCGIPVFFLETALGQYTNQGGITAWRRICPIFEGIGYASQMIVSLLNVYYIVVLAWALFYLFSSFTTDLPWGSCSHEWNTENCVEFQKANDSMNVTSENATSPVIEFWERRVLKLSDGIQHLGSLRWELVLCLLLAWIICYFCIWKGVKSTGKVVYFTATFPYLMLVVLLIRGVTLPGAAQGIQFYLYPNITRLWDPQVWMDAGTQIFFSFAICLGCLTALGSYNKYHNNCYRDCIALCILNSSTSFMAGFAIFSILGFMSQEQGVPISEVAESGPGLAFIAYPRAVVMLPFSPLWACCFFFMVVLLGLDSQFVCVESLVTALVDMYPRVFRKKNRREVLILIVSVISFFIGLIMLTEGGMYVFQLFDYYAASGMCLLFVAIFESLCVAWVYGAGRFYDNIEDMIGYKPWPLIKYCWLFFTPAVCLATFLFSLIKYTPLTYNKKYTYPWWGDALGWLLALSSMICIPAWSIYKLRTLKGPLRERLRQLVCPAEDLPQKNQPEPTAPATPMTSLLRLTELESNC
Kind of assay: [^3H]GABA uptake assay, HEK293 cells expressing mGAT3. It is filed as cell-based. Particulars: for IC50: [^3H]GABA uptake, pIC50±SEM; for remaining activity at 100 µM: HEK293, in presence of 100 μM compound. On the procedure:
as §1, §2

Assay [4] has as its target T1, mGAT1. Kind of assay: MS Binding Assay with NO711 as native MS marker. The following applies: for Ki: MS Binding Assay, NO711 marker, pKi±SEM, read-out: pK i mGAT1 (converted); for remaining activity at 100 µM: in presence of 100 μM compound, read-out: remaining specific NO711 binding (mGAT1). How it is done:
as §1
MS Binding Assays: The MS Binding Assays were performed with mGAT1 membrane preparations obtained from a stably mGAT1 expressing HEK293 cell line and NO711 as unlabeled marker in competitive binding experiments as previously described in detail.34 In short, test compounds were investigated at 7 concentrations in presence of 10 nM NO 711 in competition experiments. Non specific binding was defined as binding remaining in the presence of 100 mM GABA. Incubation was terminated by transfer of 200 μL per well onto a 96‐well filter plate (Acroprep, glass fibre, 1.0 μm, 350 μL, Pall, Dreieich, Germany) with a 12 channel pipette. After rapid vacuum‐filtration the filters were washed with ice cold 0.9 % NaCl (5×150 μL) and dried at 50 °C for 60 min. Afterwards, the filters were eluted with 100 μL methanol containing [^2H10]NO711 (1.4 nM) as internal standard per well into a deep‐well plate by application of vacuum. This step was repeated twice resulting in a total elution volume of 300 μL. Finally, a volume of 130 μL ammonium formate buffer (10 mM, pH 7.0) was added per well and the generated samples analyzed by LC‐ESI‐MS/MS using a API 3200 as described in detail previously.40

In assay [5] the target is T4, mGAT2 (Mus musculus, UniProt P31651).
T4 construct: expressed in transfected cells; host or cells: HEK293
T4 sequence (P31651 1-614): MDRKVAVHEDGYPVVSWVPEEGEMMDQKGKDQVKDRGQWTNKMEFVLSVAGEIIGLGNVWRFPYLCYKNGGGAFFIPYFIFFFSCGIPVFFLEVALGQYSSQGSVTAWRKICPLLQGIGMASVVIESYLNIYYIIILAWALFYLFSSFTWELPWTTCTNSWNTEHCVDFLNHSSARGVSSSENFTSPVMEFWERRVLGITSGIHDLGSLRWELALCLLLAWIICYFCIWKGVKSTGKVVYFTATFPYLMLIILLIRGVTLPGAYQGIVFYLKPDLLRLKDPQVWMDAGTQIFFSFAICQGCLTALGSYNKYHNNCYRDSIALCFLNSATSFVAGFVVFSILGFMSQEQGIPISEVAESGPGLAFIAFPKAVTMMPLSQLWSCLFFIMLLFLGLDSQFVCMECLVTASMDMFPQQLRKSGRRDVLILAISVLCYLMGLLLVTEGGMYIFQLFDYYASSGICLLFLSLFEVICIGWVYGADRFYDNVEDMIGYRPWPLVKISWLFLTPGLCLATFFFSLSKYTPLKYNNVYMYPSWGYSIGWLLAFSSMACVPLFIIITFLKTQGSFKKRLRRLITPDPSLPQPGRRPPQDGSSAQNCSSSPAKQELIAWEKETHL
Kind of assay: [^3H]GABA uptake assay, HEK293 cells expressing mGAT2. Type of assay: cell-based. Particulars: HEK293; in presence of 100 μM compound. On the procedure:
as §1, §2

The structures appear in SMILES notation.

As for `COc1ccc(C(OCCN2CCCC(C(=O)O)C2)(c2ccc(OC)cc2)c2ccc(C(C)=O)cc2)cc1` (racemic) [5 b, rac ‐1‐{2‐[(4‐Acetylphenyl)bis(4‐methoxyphenyl)methoxy]ethyl}piperidine‐3‐carboxylic acid], the remaining activity at 100 µM in assay [1] came out at 64.6%; in assay [5] it was 64.2%. The IC50 in assay [2] is 3.72 µM; in assay [3] it was 57.5 µM. Further, the Ki in assay [4] is 30.9 µM.

For `COc1ccc(C(OCCN2CCCC(C(=O)O)C2)(c2ccc(OC)cc2)c2ccc(S(=O)(=O)N(C)C)cc2)cc1` (racemic) [5 c, rac ‐1‐(2‐{[4‐(N,N‐dimethylsulfamoyl)phenyl]bis[4‐methoxyphenyl]‐methoxy}ethyl)piperidine‐3‐carboxylic acid], the remaining activity at 100 µM came to 67.9% in assay [1]; 82% in assay [2] (in presence of 100 μM compound); 77.1% in assay [3]; 62.1% in assay [4]; 78% in assay [5]. This compound also gave a half-inhibitory concentration (IC50) in assay [2] of over 100 µM.

As to `COc1ccc(C(OCCN2CCCC(C(=O)O)C2)(c2ccc(OC)cc2)c2ccc3nccn3c2)cc1` (racemic) [5 d, rac‐ 1‐(2‐{Imidazo[1,2‐a]pyridin‐6‐ylbis(4‐methoxyphenyl)methoxy}‐ethyl)piperidine‐3‐carboxylic acid], the remaining activity at 100 µM in assay [1] came to 84.9%; in assay [3], 81.8%; in assay [5], 72.9%. Moreover, half-maximal inhibition in assay [2] (IC50) required 26.3 µM. In assay [4], the Ki was 93.3 µM.

As for `COc1ccc(C(OCCN2CCCC(C(=O)O)C2)(c2ccc(OC)cc2)c2ccc(C(=O)O)cc2)cc1` (racemic) [5 e, rac ‐1‐{2‐[(4‐Carboxyphenyl)bis(4‐methoxyphenyl)methoxy]ethyl}piper‐idine‐3‐carboxylic acid], the remaining activity at 100 µM in assay [1] stood at 96.5%; in assay [4] it was 71.4%; in assay [5], 85.2%. Further, the figures for the IC50 in assay [2] and in assay [3] were 13.8 µM and 57.5 µM, respectively.

For the compound `COCc1ccc(C(OCCN2CCCC(C(=O)O)C2)(c2ccc(OC)cc2)c2ccc(OC)cc2)cc1` (racemic) [5 f, rac ‐1‐(2‐{[4‐(Methoxymethyl)phenyl]bis[4‐methoxyphenyl]methoxy}‐ethyl)piperidine‐3‐carboxylic acid], the remaining activity at 100 µM was found to be 67.1% in assay [1], 89.4% in assay [4] and 72.7% in assay [5]. Also, the figures for the 50% inhibitory concentration (IC50) in assay [2] and in assay [3] were 3.8 µM and 30.9 µM, respectively.

As for `COc1ccc(C(OCCN2CCCC(C(=O)O)C2)(c2ccc(C#N)cc2)c2ccc(OC)cc2)cc1` (racemic) [5 g, rac ‐1‐{2‐[(4‐Cyanophenyl)bis(4‐methoxyphenyl)methoxy]ethyl}piperidine‐3‐carboxylic acid], the remaining activity at 100 µM in assay [1] is 74.8%; in assay [5], 82.9%. Moreover, the values for the IC50 in assay [2] and in assay [3] were 8.51 µM and 49 µM, respectively. The Ki in assay [4] was 39.8 µM.

Regarding `COCc1ccc(C(OCCN2CCCC(C(=O)O)C2)(c2ccc(COC)cc2)c2ccc(OC)cc2)cc1` (racemic) [5 h, rac‐ 1‐(2‐{Bis[4‐(methoxymethyl)phenyl][4‐methoxyphenyl]methoxy}‐ethyl)piperidine‐3‐carboxylic acid], the remaining activity at 100 µM was 70.5% in assay [1], 52.2% in assay [3], 74.1% in assay [4] and 55.2% in assay [5]. Besides, the IC50 in assay [2] is 17 µM.

On to `COc1ccc(C(OCCN2CCCC(C(=O)O)C2)(c2ccc(CNc3ccc(C(=O)O)cc3)cc2)c2ccc(OC)cc2)cc1` (racemic) [5 t, rac‐ 1‐{2‐[(4‐{[(4‐Carboxyphenyl)amino]methyl}phenyl)bis(4‐methoxy‐phenyl)methoxy]ethyl}piperidine‐3‐carboxylic acid], for which the remaining activity at 100 µM in assay [1] was 99.5%; in assay [2] (in presence of 100 μM compound), 50%; in assay [3], 96%; in assay [4] it was 54.1%. The “remaining [^3H]GABA uptake mGAT4” value in assay [2] (in presence of 100 μM compound) is reported as 50,0%.
